Experimental data taken from patent US12365687B2 (Hoffmann-La Roche Inc., priority 2021, dated 2025).

Tests used:
[1] = biological target: α2β2γ1 GABAA receptor subtype (Homo sapiens (Human), UniProt P47869+Q8N1C3); assay: Two-electrode voltage clamp electrophysiology in Xenopus oocytes expressing GABAA receptors (modulation of GABA EC20 current); assay type: cell-based; conditions: for Efficacy (GABA)%: % modulation of GABA EC20 = 100*(Fold increase-1), α2β2γ1 oocytes, compound at approx. 30-fold Ki; for Fold increase h-GABA-A α2β2γ1 oocyte @ 30-fold Ki: Xenopus oocytes expressing α2β2γ1, compound at approx. 30-fold its Ki α2β2γ1, GABA EC20 current
Summary of the method: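 Each concentration was tested on ≥3 oocytes held at −80 mV at room temperature, recorded 3-5 days post-injection. A control and a test response to EC20 GABA (1.5 min each) were superimposed and their point-by-point ratio taken. Peak ratio reported as % modulation of GABA EC20 = 100×(fold increase−1).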

[2] = biological target: human GABAA α1β3γ2 receptor (Homo sapiens (Human), UniProt P14867+P18507); assay: Radioligand binding assay for γ2-containing GABAA subtypes, [3H]Flumazenil competition (α1β3γ2); conditions: for γ2/γ1 Selectivity Ratio: Ki α1β3γ2 (nM)/Ki α2β2γ1 (nM); for LogSel: Log[Ki α1β3γ2 (nM)/Ki α2β2γ1 (nM)]
[3] = biological target: human GABAA α1β2γ1 receptor (Homo sapiens (Human), UniProt P14867+Q8N1C3); assay: Radioligand binding assay for γ1-containing GABAA subtypes, [3H]RO7239181 competition (α1β2γ1)
Protocol: The affinity of compounds at GABAA γ1 subunit-containing receptors was measured by competition for [^3H]RO7239181 (67.3 Ci/mmol; Roche) binding to membranes from HEK293F cells (ThermoFisher R79007) expressing human (transiently transfected) receptors of composition α5β2γ1, α2β2γ1, α1β2γ1.
Harvested pellets from HEK293F cells expressing the different GABAA receptor subtypes were resuspended in Mannitol Buffer pH 7.2-7.4 (Mannitol 0.29 M, Triethylamine 10 mM, Acetic acid 10 mM, EDTA 1 mM plus protease inhibitors (20 tablets Complete, Roche Diagnostics Cat. No. 05 056 489 001 per liter)), washed two times and then resuspended at 1:10 to 1:15 dilution in the same buffer. Cell disruption was performed by stirring the suspension in a Parr vessel #4637 at 435 psi for 15 minutes, and then the suspensions were centrifuged at 1000×g for 15 minutes at 4° C. (Beckman Avanti J-HC; rotor JS-4.2). The supernatant (S1) was transferred in a 2 l Schott flask and the pellet (P1) was resuspended with Mannitol Buffer up to 175 ml. The resuspended pellet was transferred into a 250 ml Corning centrifugal beaker and centrifuged at 1500×g for 10 minutes at 4° C. (Beckman Avanti J-HC; rotor JS-4.2). The supernatant (S1) was then transferred in the 2 l Schott flask and the pellet was discarded. The supernatants (S1) were centrifuged in 500 ml Beckman polypropylene centrifugal beaker at 15′000×g for 30 minutes at 4° C. (Beckman Avanti J-20 XP; rotor JLA-10.500). The pellet (P2) was resuspended with Mannitol Buffer 1:1 and frozen at −80° C. The supernatant (S2) was centrifuged in 100 ml Beckman polypropylene centrifugal tubes at 48000×g for 50 minutes at 4° C. (Beckman Avanti J-20 XP; rotor JA-18). The supernatant (S3) was discarded and the pellet (P3) was resuspended with 1:1 Mannitol Buffer. The P2 and P3 protein concentration was determined with the BIORAD Standard assay method with bovine serum albumin as standard and measured on the NANO-Drop 1000. The membrane suspension was aliquots (500 μl per tube) and stored at −80° C. until required.
Membrane homogenates were resuspended and polytronised (Polytron PT1200E Kinematica AG) in Potassium Phosphate 10 mM, KCl 100 mM binding buffer at pH 7.4 to a final assay concentration determined with a previous experiment.
Assays were incubated to equilibrium for 1 hour at 4° C. and then, membranes were filtered onto unifilter (96-well white microplate with bonded GF/C filters preincubated 20-50 minutes in 0.3% Polyethylenimine) with a Filtermate 196 harvester (Packard BioScience) and washed 4 times with cold Potassium Phosphate 10 mM pH 7.4, KCl 100 mM binding buffer. After anhydrousing, filter-retained radioactivity was detected by liquid scintillation counting. Ki values were calculated using Excel-Fit (Microsoft) and are the means of two determinations.

[4] = biological target: human GABAA α2β2γ1 receptor (Homo sapiens (Human), UniProt P47869+Q8N1C3); assay: Radioligand binding assay for γ1-containing GABAA subtypes, [3H]RO7239181 competition (α2β2γ1)
[5] = biological target: human GABAA α5β2γ1 receptor (Homo sapiens (Human), UniProt P31644+Q8N1C3); assay: Radioligand binding assay for γ1-containing GABAA subtypes, [3H]RO7239181 competition (α5β2γ1)
[6] = Ki h-GABAA α2β2γ1, [3H]RO7239181 competition binding, human GABAA α2β2γ1
[7] = Ki h-GABAA α2β2γ1, displacement of [3H]RO7239181, membranes of HEK293F cells expressing human receptors, means of two determinations

SMILES | Efficacy (GABA)% [1] [%] | Fold increase h-GABA-A α2β2γ1 oocyte @ 30-fold Ki [1] | Ki [2] [nM] | γ2/γ1 Selectivity Ratio [2] | LogSel [2] | Ki [3] [nM] | Ki [4, 6] [nM] | Ki [4, 7] [nM] | Ki [5] [nM]
C[C@@H]1N=C(c2c(F)cccc2F)c2c(ccc(Cl)c2Cl)-n2nc(C(=O)N3CCS(=O)(=O)CC3)nc21 [Example 36, [(4S)-7,8-dichloro-6-(2,6-difluorophenyl)-4-methyl-4H-[1,2,4]triazolo[1,5-a][1,4]benzodiazepin-2-yl]-(1,1-dioxo-1,4-thiazinan-4-yl)methanone] | 71 | 1.71 | 778 | 224.7 | 2.35 | 8.25 | 3.5 | 3.46 | 0.95
C[C@@H]1N=C(c2c(F)cccc2F)c2c(ccc(C(F)(F)F)c2Cl)-n2nc(C(=O)NCCO)nc21 [Example 107, (4S)-7-chloro-6-(2,6-difluorophenyl)-N-(2-hydroxyethyl)-4-methyl-8-(trifluoromethyl)-4H-[1,2,4]triazolo[1,5-a][1,4]benzodiazepine-2-carboxamide] | 103 | 2.03 | 3700 | 319.1 | 2.50 | 65.1 | 14 | 11.6 | 2.5
C[C@@H]1N=C(c2c(F)cccc2F)c2c(ccc(C(F)(F)F)c2Cl)-n2nc(C(=O)N3CCS(=O)(=O)CC3)nc21 [Example 114, [(4S)-7-chloro-6-(2,6-difluorophenyl)-4-methyl-8-(trifluoromethyl)-4H-[1,2,4]triazolo[1,5-a][1,4]benzodiazepin-2-yl]-(1,1-dioxo-1,4-thiazinan-4-yl)methanone] | 88 | 1.88 | 3090 | 325.5 | 2.51 | 23.2 | 9.5 | 9.5 | 3.73
C[C@@H]1N=C(c2ncccc2F)c2c(ccc(C(F)(F)F)c2Cl)-n2cc(C(=O)NCC(C)(C)O)nc21 [Example 159, (4S)-7-chloro-6-(3-fluoro-2-pyridyl)-N-(2-hydroxy-2-methyl-propyl)-4-methyl-8-(trifluoromethyl)-4H-imidazo[1,2-a][1,4]benzodiazepine-2-carboxamide] | 217 | 3.17 | 8320 | 195.6 | 2.29 | 70.4 | 43 | 42.6 | 11.4
CNC(=O)Nc1nc2n(n1)-c1ccc(C(F)(F)F)c(Cl)c1C(c1c(F)cccc1F)=N[C@H]2C [Example 129, 1-[(4S)-7-chloro-6-(2,6-difluorophenyl)-4-methyl-8-(trifluoromethyl)-4H-[1,2,4]triazolo[1,5-a][1,4]benzodiazepin-2-yl]-3-methyl-urea] | 36 | 1.36 | 3350 | 558.0 | 2.75 | 49.9 | 6 | 6 | 1.58
C[C@@H]1N=C(c2c(F)cccc2F)c2c(ccc(C(F)(F)F)c2Cl)-n2nc(N3CCOC3=O)nc21 [Example 121, 3-[(4S)-7-chloro-6-(2,6-difluorophenyl)-4-methyl-8-(trifluoromethyl)-4H-[1,2,4]triazolo[1,5-a][1,4]benzodiazepin-2-yl]oxazolidin-2-one] | 52 | 1.52 | 1210 | 218.2 | 2.34 | 39.1 | 5.5 | 5.5 | 1.43
C[C@@H]1N=C(c2c(F)cccc2F)c2c(ccc(Cl)c2Cl)-n2nc(C3CC3)nc21 [Example 49, (4S)-7,8-dichloro-2-cyclopropyl-6-(2,6-difluorophenyl)-4-methyl-4H-[1,2,4]triazolo[1,5-a][1,4]benzodiazepine] | 75 | 1.75 | 619 | 39.5 | 1.60 |  | 15.7 | 15.7 | 1.41
C[C@@H]1N=C(c2c(F)cccc2F)c2c(ccc(Cl)c2Cl)-n2nc(C(=O)NC[C@@H](C)O)nc21 [Example 65, (4S)-7,8-dichloro-6-(2,6-difluorophenyl)-4-methyl-N-[(2R)-2-hydroxypropyl]-4H-[1,2,4]triazolo[1,5-a][1,4]benzodiazepine-2-carboxamide] | 80 | 1.80 | 492 | 84.8 | 1.93 |  | 5.8 | 5.8 | 0.5
C[C@@H]1N=C(c2c(F)cccc2F)c2c(ccc(C(F)(F)F)c2Cl)-n2nc(NC(=O)NC3COC3)nc21 [Example 125, 1-[(4S)-7-chloro-6-(2,6-difluorophenyl)-4-methyl-8-(trifluoromethyl)-4H-[1,2,4]triazolo[1,5-a][1,4]benzodiazepin-2-yl]-3-(oxetan-3-yl)urea] | 73 | 1.73 | 1600 | 259.0 | 2.41 |  | 6.2 | 6.19 | 1.7
COC1CN(C(=O)Nc2nc3n(n2)-c2ccc(Cl)c(Cl)c2C(c2c(F)cccc2F)=N[C@H]3C)C1 [Example 60, 3-methoxy-N-[(4S)-7,8-dichloro-6-(2,6-difluorophenyl)-4-methyl-4H-[1,2,4]triazolo[1,5-a][1,4]benzodiazepin-2-yl]azetidine-1-carboxamide] | 107 | 2.07 | 602 | 49.1 | 1.69 |  | 12.3 | 12.3 | 1.49
COC1CN(C(=O)Nc2nc3n(n2)-c2ccc(C(F)(F)F)c(Cl)c2C(c2c(F)cccc2F)=N[C@H]3C)C1 [Example 127, N-[(4S)-7-chloro-6-(2,6-difluorophenyl)-4-methyl-8-(trifluoromethyl)-4H-[1,2,4]triazolo[1,5-a][1,4]benzodiazepin-2-yl]-3-methoxy-azetidine-1-carboxamide] | 112 | 2.12 | 4760 | 96.5 | 1.98 |  | 49.4 | 49.4 | 5.46
C[C@@H]1N=C(c2c(F)cccc2F)c2c(ccc(Cl)c2Cl)-n2nc(S(C)(=O)=O)nc21 [Example 82, (4S)-7,8-dichloro-6-(2,6-difluorophenyl)-4-methyl-2-methylsulfonyl-4H-[1,2,4]triazolo[1,5-a][1,4]benzodiazepine] | 75 | 1.75 | 2130 | 107.3 | 2.03 |  | 19.8 | 19.8 | 3.55
